Measured values as given in publication PMC6588243, “Fate of ptaquiloside—A bracken fern toxin—In cattle” (PLoS ONE, 2019).

Assays:
Format in all cases: in vivo, Jersey heifers
[1] = Toxicokinetics of PTA and PTB in plasma after intravenous administration of PTA
Procedure: Two heifers (no’s 4848 and 4849) were used in a series of five experiments (Table 1) in a cross-over design including intravenous administration of pure PTA, oral administration of bracken extract and oral administration of dried bracken fern. At least 2 weeks elapsed between each experiment.
Intravenous administration of PTA. In Experiment 1 the dose of purified PTA (0.21 mg kg^-1 body weight (b.w.) / 0.527 μmoles kg^-1) was dissolved in 10 mL of sterile water in a brown glass vial 1 hour before administration and protected from light. The solution was injected through a catheter (Cavafix Certo: 45 cm, 16 G; B. Braun Melsungen AG, Melsungen, Germany) placed in the right jugular vein. Blood samples were collected through another catheter placed in the left jugular vein. Blood samples were collected in heparinized glass tubes before and at predetermined times (10, 20, 30, 45 min and 1, 2, 4, 6, 8, 12, 21 and 24 hours) after PTA administration. The blood was centrifuged for 15 min at 3000 g to separate plasma which then was stored immediately at -18°C until assayed within a week following the method of Aranha et al.. Urine was collected quantitatively in urinary bags (Ratiomed GmBH, München, Germany) through a Foley catheter (Rusch Silasil no 16; Teleflex, Milan, Italy) inserted into the bladder. Samples were collected before and at predetermined times (1, 2, 4, 6, 8, 12, 20 and 24 hours) after PTA administration. Two replicates from each sample were diluted 10 times (0.5 mL: 4.5 mL) with 0.1 M acetic acid, buffered to pH 5 with ammonium acetate and frozen immediately at -18°C until assayed within a week following the method of Aranha et al.. […] In this experiment, PTA was dissolved in sterile water immediately before injection.
(§1) Concentrations of PTA in plasma of individual animals were evaluated by non-compartmental analysis. Toxicokinetic variables were calculated using standard kinetic equations. The area under the curve (AUC) and the area under the first moment curve (AUMC) were determined using combined linear and natural logarithm trapezoidal rules. The terminal elimination rate was determined using the last three data points of the curve.
(§2) PTA and PTB were analysed by LC-MS after purification using solid phase extraction (SPE) columns as reported in Aranha et al.. The limit of quantification of PTA and PTB in plasma was 3.0 x 10^−3 μM and 9.30 x 10^−3 μM, respectively. Limit of quantifications in diluted urine was 13 x 10^−3 μM for PTA and 8.28 x 10^−3μM for PTB.

[2] = Urinary recovery after oral administration of bracken extract or dried bracken fern; conditions: oral bracken extract or dried fern, within 24 hours
Procedure: Oral exposure, bracken extract. Bracken extract was administered orally by gavage in Experiment 2 (170 and 172 mL) and Experiment 5 (820 and 850 mL), to obtain PTA doses of 0.41 and 2 mg kg^-1 b.w (1.025 and 5.000 μmoles kg^-1), respectively. Blood and urine samples were collected up to 48 hours after gavage and samples were processed and stored as described previously.
Oral exposure, dried bracken fern. In Experiment 3, dried bracken fern was milled to a fine powder. Immediately before administration, the powder was mixed with water to produce a slurry (15 g of bracken per 100 mL of water). The slurry was administered orally by gavage (400 mL and 380 mL) corresponding to a PTA dose of 1.6 mg kg^-1 b.w (4 μmoles kg^-1). Blood and urine samples were collected up to 72 hours after gavage and the samples were processed and stored as described above.
as §2

[3] = One-week repeated dose trial with dried bracken, plasma toxicokinetics; conditions: for AUC0-∞ / MTT: PTB in plasma, daily PTA dose 2 mg kg^-1
Text: The two heifers used for the single dose trials were also used for the one week repeated dose study together with an additional two Jersey heifers (no’s 1550 and 1567; Harald Hansen Eftf. I/S, Slangerup, Denmark) weighing 163 to 237 kg. The additional two heifers had never been exposed to PTA or to bracken fern. A wash-out period of 20 days between the last single-dose experiment and the one week repeated dose trial was established for heifers no’s 4848 and 4849.
All four heifers were fed dried bracken powder (top-dressed and molasses added). twice a day during a period of 7 days providing a daily PTA dose of 2 mg kg^-1 (5 μmoles kg^-1). On Day 8, the heifers no 4848 and no 1567 were additionally fed in the morning and euthanized 1 hour after using a captive bolt pistol and exsanguination. The two other heifers (no 4849 and no 1550) were euthanized 15 h after the last dose on Day 7 (Fig 2).
Blank blood samples were collected before the first dose was given. On Day 1 and Day 7 blood samples were collected after the morning dose at predetermined time points between 1 and 6 h after dosing (1, 2, 3, 5 and 6 hours). On Day 2 to Day 6 blood samples were collected daily 1 hour after 50% or more of the morning feed had been ingested, since the bracken fern was not eaten instantly. On Day 8 blood samples were collected just before euthanasia. Blood samples were processed and stored as described above.
as §1

[4] = Day 1, heifer 1550, dried bracken twice a day
[5] = Day 1, heifer 1567, dried bracken twice a day
[6] = Day 1, heifer 4848, dried bracken twice a day
[7] = Day 1, heifer 4849, dried bracken twice a day
[8] = Day 7, heifer 1550, dried bracken twice a day
[9] = Day 7, heifer 1567, dried bracken twice a day
[10] = Day 7, heifer 4848, dried bracken twice a day
[11] = Day 7, heifer 4849, dried bracken twice a day

Cc1cc2c(c(C)c1CCO)C(=O)[C@H](C)C2 [PTB, pterosin B]
AUC0-∞ ([1]; PTB in plasma after iv PTA 0.141 μmoles kg^-1, heifer no 4849, head prints Experiment 2): 0.319 µmol·h/L
AUC0-∞ ([1]; PTB in plasma after iv PTA 0.231 μmoles kg^-1, heifer no 4848, head prints Experiment 2): 0.284 µmol·h/L
AUC0-∞ ([1]; PTB in plasma after iv PTA 0.527 μmoles kg^-1, heifer no 4848, Experiment 1): 0.596 µmol·h/L
AUC0-∞ ([1]; PTB in plasma after iv PTA 0.527 μmoles kg^-1, heifer no 4849, Experiment 1): 0.654 µmol·h/L
Tmax ([1]; female, Jersey, cattle, plasma, 0.21 mg kg^-1 b.w., iv PTA, first sampling point, read-out: time of peak plasma concentration of the metabolite after administration of PTA (converted)): 10 min
ratio of AUC PTB to AUC PTA ([1]; heifer no 4848, Experiments 1 and 4): approx. 0.4
ratio of AUC PTB to AUC PTA ([1]; heifer no 4849, additional iv experiment with lower dose): 0.76
PTB recovered in urine [2]: up to 7 % of the dose
PTB recovered in urine ([2]; listed as Pterosin B): 7 % of the dose
AUC0-∞ ([3]; Day 1, average of four heifers): 0.774 µmol·h/L
MTT ([3]; Day 1, average of four heifers): 3.8 h
AUC0-∞ [3, 4]: 0.386 µmol·h/L
MTT [3, 4]: 2.3 h
AUC0-∞ [3, 5]: 1.248 µmol·h/L
MTT [3, 5]: 4.4 h
AUC0-∞ [3, 6]: 0.873 µmol·h/L
MTT [3, 6]: 4.6 h
AUC0-∞ [3, 7]: 0.591 µmol·h/L
MTT [3, 7]: 3.9 h
AUC0-∞ ([3]; Day 7, average of four heifers): 0.849 µmol·h/L
MTT ([3]; Day 7, average of four heifers): 3.4 h
AUC0-∞ [3, 8]: 0.606 µmol·h/L
MTT [3, 8]: 3.2 h
AUC0-∞ [3, 9]: 1.264 µmol·h/L
MTT [3, 9]: 3.6 h
AUC0-∞ [3, 10]: 0.968 µmol·h/L
MTT [3, 10]: 3.9 h
AUC0-∞ [3, 11]: 0.558 µmol·h/L
MTT [3, 11]: 3.0 h
transient peak of PTB in plasma as share of the PTA dose ([3]; after the morning dose): 10%
accumulation of PTB in the organism ([3]; mean AUC0-∞ Day 1 vs Day 7): not accumulated
